Where “and” joins values, the source holds several entries; their conditions need not be identical. Equal entries are not always repeated.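 Results reflect a 48-hour exposure of cells in 96-well plates to compound at five concentrations. Here, GI50 denotes the concentration required for 50% inhibition of growth. TGI is the concentration that stops growth completely.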
Legend:
Assay in all cases: NCI tumour cell line growth inhibition, 48 h
SN12K1 renal = tested on: SN12K1 renal
DLD-1 colon = tested on: DLD-1 colon
M19-MEL melanoma = tested on: M19-MEL melanoma
HOP-18 NSCLC = tested on: HOP-18 NSCLC
SNB-78 CNS = tested on: SNB-78 CNS
DMS 273 small cell lung = tested on: DMS 273 small cell lung
P388 leukemia = tested on: P388 leukemia
LXFL 529 NSCLC = tested on: LXFL 529 NSCLC
KM20L2 colon = tested on: KM20L2 colon
RXF-631 renal = tested on: RXF-631 renal
P388/ADR leukemia = tested on: P388/ADR leukemia

Structure (SMILES) | GI50 (SN12K1 renal) [µM] | TGI (SN12K1 renal) | GI50 (DLD-1 colon) [µM] | GI50 (M19-MEL melanoma) [µM] | GI50 (HOP-18 NSCLC) [µM] | TGI (HOP-18 NSCLC) | GI50 (SNB-78 CNS) [µM] | TGI (SNB-78 CNS) [µM] | GI50 (DMS 273 small cell lung) [µM] | TGI (DMS 273 small cell lung) | TGI (P388 leukemia) [µM] | TGI (M19-MEL melanoma) [µM] | TGI (LXFL 529 NSCLC) [µM] | TGI (KM20L2 colon) [µM] | TGI (DLD-1 colon) [µM] | TGI (RXF-631 renal) [µM] | TGI (P388/ADR leukemia) [µM]
C=C1CCCC(C)(C)[C@@H]1CC/C(C)=C/Cn1c2cccc(=O)c-2nc2ccccc21 | 2.89 | 15.5 µM and 13.2 µM | 4.86 | 3.07 | 37.2 | > 100 µM and 18.2 µM | 4.35 | > 100 | 3.02 | 24.1 µM and 3.29 µM | > 100 |  |  |  |  |  | 
CCN(CC)/[N+]([O-])=N/OC |  |  |  |  |  |  |  | > 100 |  | > 100 µM |  | > 100 | > 100 | > 100 |  |  | 
COc1cccc(/C=N/[N-]C(N)=O)c1[O-].[Cu+2].[OH3+].c1cnc2c(c1)ccc1cccnc12 |  |  |  |  |  |  |  |  |  |  |  |  |  | > 100 |  |  | 
O=CC(O)C(O)C(O)COc1cc(CO)cc2c1C(=O)c1ccccc1C2=O (centres undefined) |  |  |  |  |  | > 100 µM |  | > 100 |  | > 100 µM |  | > 100 | > 100 | > 100 | > 100 | > 100 | 
CCOC(=O)C(C)OC(=O)c1ccc(C)cc1 (centres undefined) |  |  |  |  |  | > 100 µM |  | > 100 |  | > 100 µM |  | > 100 | > 100 | > 100 | > 100 | > 100 | 
O=c1oc2c(ccc3occc32)c(N2CCCCC2)c1-c1ccccc1 |  | > 100 µM |  |  |  | > 100 µM |  | > 100 |  | > 100 µM | > 100 | > 100 |  | > 100 | > 100 |  | > 100
NC(N)=NS(=O)(=O)c1ccc(Nc2c3ccccc3nc3c(C(=O)N4CCN(CCO)CC4)ccc(Cl)c23)cc1 |  |  |  |  |  |  |  | > 100 |  |  |  | > 100 |  | > 100 | > 100 |  | 
CCOC(=O)C(=CNC(Cc1c[nH]c2ccccc12)C(=O)OC)C(=O)OCC (centres undefined) |  |  |  |  |  | > 100 µM |  | > 100 |  |  |  | > 100 | > 100 | > 100 | > 100 | > 100 | 
COC(=N)C(C)C |  |  |  |  |  |  |  | > 100 |  | > 100 µM |  | > 100 | > 100 | > 100 | > 100 |  | 

Source: PubChem BioAssay (NCI)
